Test results taken from US20240425517A1, “NOVEL COMPOUND FOR DEGRADATION OF TARGET PROTEIN OR POLYPEPTIDE BY POLYUBIQUITINATION” (PRAZER THERAPEUTICS INC., priority 2021, published 2024).
Structures can show the parent of a compound that is named as a salt.

What follows are compounds tested against T1, Aurora A proteins (Homo sapiens, UniProt O14965) (assay: Degradation of Aurora A protein in MM.1S cell lines (Western blot densitometry)). Details: MM1.S, 24 h, read-out: Aurora A degrading capacity (%).
T1 construct: endogenous in cells; host or cells: MM.1S
T1 sequence (O14965 1-403): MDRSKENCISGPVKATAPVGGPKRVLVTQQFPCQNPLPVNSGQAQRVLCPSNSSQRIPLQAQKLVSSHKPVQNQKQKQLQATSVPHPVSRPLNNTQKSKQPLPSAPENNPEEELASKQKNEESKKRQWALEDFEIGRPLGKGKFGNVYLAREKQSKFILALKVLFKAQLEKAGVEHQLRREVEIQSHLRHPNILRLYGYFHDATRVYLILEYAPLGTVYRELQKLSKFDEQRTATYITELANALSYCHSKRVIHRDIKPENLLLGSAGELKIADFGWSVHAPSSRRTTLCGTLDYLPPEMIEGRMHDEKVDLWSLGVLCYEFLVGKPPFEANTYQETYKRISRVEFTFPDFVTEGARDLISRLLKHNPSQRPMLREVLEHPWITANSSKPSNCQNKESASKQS
Assay type: cell-based
Procedure: Specifically, the MM.1S cells were cultured in RPMI-1640 medium containing 10% fetal bovine serum (FBS), 1% penicillin, and streptomycin (100 U/mL), transferred to a 6-well plate, and after 24 hours, the Aurora A degraders were diluted in the RPMI culture medium and cells were treated with 5 μM concentration thereof. After treatment, the cells were incubated in a CO2 incubator for 24 hours. […] After cell culture was completed according to the experimental conditions, the cells were collected and centrifuged at 1,800 rpm for 3 minutes. The cells in the precipitate were lysed with RIPA (25 mM Tris-HCl pH 7.6, 150 mM NaCl, 1% NP-40, 1% sodium deoxycholate, 0.1% SDS, 1× Protease Inhibitor Cocktail), 5× sample buffer was added, and then heated at 100° C. for 15 minutes. The prepared sample was electrophoresed with sodium dodecyl sulfate poly acrylamide gel electrophoresis (SDS-PAGE), and then the proteins in the gel were transferred to a PVDF membrane using Trans-Blot Turbo. The membrane was treated with a 5% bovine serum albumin (BSA) solution and blocked at room temperature for 2 hours, and then Aurora A and R-actin antibodies were diluted in the 5% BSA solution to react with the membrane at 4° C. overnight. After washed with PBST (0.5% Tween20) 5 times, horse radish peroxidase (HRP)-conjugated secondary antibodies were diluted in PBST to react at room temperature for 2 hours, and then washed again with a PBST solution 5 times. After enzyme-substrate reaction was carried out using a HRP substrate, a signal was measured with chemi-doc equipment, and the densitometry of a band corresponding to the Aurora A protein detected in the Preparation Example Compounds was quantitatively analyzed. The case when the degrading capacity of each Aurora A degrader was reduced by less than 40% is indicated as +, the case when the degrading capacity was reduced by 40% to 70% (exclusive of 70) is indicated as ++, the case when the degrading capacity was reduced by 70% or more is indicated as +++ in Tables 20 to 23 below.

SMILES | Aurora A degradation (%) at 5 µM [%]
COc1cc(Nc2ncc3c(n2)-c2ccc(Cl)cc2C(c2c(F)cccc2OC)=NC3)ccc1C(=O)Nc1ccc(C#CCN)cc1 [1-1″, N-(4-(3-aminoprop-1-yn-1-yl)phenyl)-4-((9-chloro-7-(2-fluoro-6-methoxyphenyl)-5H-benzo[c]pyrimido[4,5-e]azepin-2-yl)amino)-2-methoxybenzamide trifluoroacetic acid] | > 70
COc1cc(Nc2ncc3c(n2)-c2ccc(Cl)cc2C(c2c(F)cccc2OC)=NC3)ccc1C(=O)Nc1cccc(C#CCN)c1 [1-3″, N-(3-(3-aminoprop-1-yn-1-yl)phenyl)-4-((9-chloro-7-(2-fluoro-6-methoxyphenyl)-5H-benzo[c]pyrimido[4,5-e]azepin-2-yl)amino)-2-methoxybenzamide trifluoroacetic acid] | > 70
COC(=O)c1ccc(NC(=O)c2ccc(Nc3ncc4c(n3)-c3ccc(Cl)cc3C(c3c(F)cccc3OC)=NC4)cc2OC)cc1C#CCN [3-25″, methyl 2-(3-aminoprop-1-yn-1-yl)-4-(4-((9-chloro-7-(2-fluoro-6-methoxyphenyl)-5H-benzo[c]pyrimido[4,5-e]azepin-2-yl)amino)-2-methoxybenzamido)benzoate trifluoroacetic acid] | < 40
COc1cc(Nc2ncc3c(n2)-c2ccc(Cl)cc2C(c2c(F)cccc2OC)=NC3)ccc1C(=O)Nc1ccc(C#CC(N)CO)cc1 (centres unmarked) [3-49″, N-(4-(3-amino-4-hydroxybut-1-yn-1-yl)phenyl)-4-((9-chloro-7-(2-fluoro-6-methoxyphenyl)-5H-benzo[c]pyrimido[4,5-e]azepin-2-yl)amino)-2-methoxybenzamide trifluoroacetic acid] | > 70
COc1cc(Nc2ncc3c(n2)-c2ccc(Cl)cc2C(c2c(F)cccc2OC)=NC3)ccc1C(=O)NCC#Cc1ccc(C#CCN)o1 [4-1″, N-(3-(5-(3-aminoprop-1-yn-1-yl)furan-2-yl)prop-2-yn-1-yl)-4-((9-chloro-7-(2-fluoro-6-methoxyphenyl)-5H-benzo[c]pyrimido[4,5-e]azepin-2-yl)amino)-2-methoxybenzamide trifluoroacetic acid] | > 70
COc1cc(Nc2ncc3c(n2)-c2ccc(Cl)cc2C(c2c(F)cccc2OC)=NC3)ccc1C(=O)NCCCCCC(=O)Nc1ccc(C#CCN)cc1 [4-165″, N-(6-((4-(3-aminoprop-1-yn-1-yl)phenyl)amino)-6-oxohexyl)-4-((9-chloro-7-(2-fluoro-6-methoxyphenyl)-5H-benzo[c]pyrimido[4,5-e]azepin-2-yl)amino)-2-methoxybenzamide trifluoroacetic acid] | > 70
COc1cc(Nc2ncc3c(n2)-c2ccc(Cl)cc2C(c2c(F)cccc2OC)=NC3)ccc1C(=O)NCCCNC(=O)c1ccc(C#CCN)o1 [4-166″, 5-(3-aminoprop-1-yn-1-yl)-N-(3-(4-((9-chloro-7-(2-fluoro-6-methoxyphenyl)-5H-benzo[c]pyrimido[4,5-e]azepin-2-yl)amino)-2-methoxybenzamido)propyl)furan-2-carboxamide trifluoroacetic acid] | < 40
COC(=O)c1ccc(NC(=O)CCCNC(=O)c2ccc(Nc3ncc4c(n3)-c3ccc(Cl)cc3C(c3c(F)cccc3OC)=NC4)cc2OC)cc1C#CCN [4-228″, methyl 2-(3-aminoprop-1-yn-1-yl)-4-(4-(4-((9-chloro-7-(2-fluoro-6-methoxyphenyl)-5H-benzo[c]pyrimido[4,5-e]azepin-2-yl)amino)-2-methoxybenzamido)butanamido)benzoate trifluoroacetic acid] | 40 to 70
COc1cc(Nc2ncc3c(n2)-c2ccc(Cl)cc2C(c2c(F)cccc2OC)=NC3)ccc1C(=O)NCCCC(=O)Nc1ccc(C#CCN)c(CO)c1 [5-8″, N-(4-((4-(3-aminoprop-1-yn-1-yl)-3-(hydroxymethyl)phenyl)amino)-4-oxobutyl)-4-((9-chloro-7-(2-fluoro-6-methoxyphenyl)-5H-benzo[c]pyrimido[4,5-e]azepin-2-yl)amino)-2-methoxybenzamide trifluoroacetic acid] | < 40
COC(=O)c1ccc(C#CCNC(=O)C2CCN(C(=O)c3ccc(Nc4ncc5c(n4)-c4ccc(Cl)cc4C(c4c(F)cccc4OC)=NC5)cc3OC)CC2)cc1C#CCN [5-28″, methyl 2-(3-aminoprop-1-yn-1-yl)-4-(3-(1-(4-((9-chloro-7-(2-fluoro-6-methoxyphenyl)-5H-benzo[c]pyrimido[4,5-e]azepin-2-yl)amino)-2-methoxybenzoyl)piperidine-4-carboxamido)prop-1-yn-1-yl)benzoate trifluoroacetic acid] | > 70
COC(=O)c1ccc(N2CCN(CC3CCN(C(=O)c4ccc(Nc5ncc6c(n5)-c5ccc(Cl)cc5C(c5c(F)cccc5OC)=NC6)cc4OC)CC3)CC2)cc1C#CCN [5-29″, methyl 2-(3-aminoprop-1-yn-1-yl)-4-(4-((1-(4-((9-chloro-7-(2-fluoro-6-methoxyphenyl)-5H-benzo[c]pyrimido[4,5-e]azepin-2-yl)amino)-2-methoxybenzoyl)piperidin-4-yl)methyl)piperazin-1-yl)benzoate trifluoroacetic acid] | > 70
COC(=O)c1ccc(N2CCN(C(=O)CCNC(=O)c3ccc(Nc4ncc5c(n4)-c4ccc(Cl)cc4C(c4c(F)cccc4OC)=NC5)cc3OC)CC2)cc1C#CCN [5-32″, methyl 2-(3-aminoprop-1-yn-1-yl)-4-(4-(3-(4-((9-chloro-7-(2-fluoro-6-methoxyphenyl)-5H-benzo[c]pyrimido[4,5-e]azepin-2-yl)amino)-2-methoxybenzamido)propanoyl)piperazin-1-yl)benzoate trifluoroacetic acid] | 40 to 70
COC(=O)c1ccc(NC2CCC(NC(=O)c3ccc(Nc4ncc5c(n4)-c4ccc(Cl)cc4C(c4c(F)cccc4OC)=NC5)cc3OC)CC2)cc1C#CCN (centres unmarked) [5-35″, methyl 2-(3-aminoprop-1-yn-1-yl)-4-((4-(4-((9-chloro-7-(2-fluoro-6-methoxyphenyl)-5H-benzo[c]pyrimido[4,5-e]azepin-2-yl)amino)-2-methoxybenzamido)cyclohexyl)amino)benzoate trifluoroacetic acid] | > 70
COC(=O)c1ccc(N2CC3(CN(C(=O)c4ccc(Nc5ncc6c(n5)-c5ccc(Cl)cc5C(c5c(F)cccc5OC)=NC6)cc4OC)C3)C2)cc1C#CCN [5-40″, methyl 2-(3-aminoprop-1-yn-1-yl)-4-(6-(4-((9-chloro-7-(2-fluoro-6-methoxyphenyl)-5H-benzo[c]pyrimido[4,5-e]azepin-2-yl)amino)-2-methoxybenzoyl)-2,6-diazaspiro[3.3]heptan-2-yl)benzoate trifluoroacetic acid] | > 70
COc1cc(Nc2ncc3c(n2)-c2ccc(Cl)cc2C(c2c(F)cccc2OC)=NC3)ccc1C(=O)NCCCC(=O)Nc1ccc(-c2cnc(C(F)(F)F)nc2)c(C#CCN)c1 [5-81″, N-(4-((3-(3-aminoprop-1-yn-1-yl)-4-(2-(trifluoromethyl)pyrimidin-5-yl)phenyl)amino)-4-oxobutyl)-4-((9-chloro-7-(2-fluoro-6-methoxyphenyl)-5H-benzo[c]pyrimido[4,5-e]azepin-2-yl)amino)-2-methoxybenzamide trifluoroacetic acid] | > 70

Same assay, conditions: MM1.S; MM.1S cells, 5 μM, 24 hours, Western blot; read-out: Aurora A degrading capacity (%)

Aurora A degradation (%) at 5 µM [%] | SMILES
> 70 | COC(=O)c1ccc(C(=O)NCCCNC(=O)c2ccc(Nc3ncc4c(n3)-c3ccc(Cl)cc3C(c3c(F)cccc3OC)=NC4)cc2OC)cc1C#CCN [5-18″, methyl 2-(3-aminoprop-1-yn-1-yl)-4-((3-(4-((9-chloro-7-(2-fluoro-6-methoxyphenyl)-5H-benzo[c]pyrimido[4,5-e]azepin-2-yl)amino)-2-methoxybenzamido)propyl)carbamoyl)benzoate hydrochloride]
< 40 | COC(=O)c1ccc(NC(=O)C2CCN(C(=O)c3ccc(Nc4ncc5c(n4)-c4ccc(Cl)cc4C(c4c(F)cccc4OC)=NC5)cc3OC)CC2)cc1C#CCN [5-23″, methyl 2-(3-aminoprop-1-yn-1-yl)-4-(1-(4-((9-chloro-7-(2-fluoro-6-methoxyphenyl)-5H-benzo[c]pyrimido[4,5-e]azepin-2-yl)amino)-2-methoxybenzoyl)piperidine-4-carboxamido)benzoate hydrochloride]
